# Experimental data reported in ChEMBL document CHEMBL1127132, “Synthesis and biological activity of tetracyclic carbapenems” (1993).
# Experiments:
# Format in all cases: functional
# [1] = test system: Morganella morganii; assay: Compound was evaluated for antibacterial activity against Proteus morganii.932 compared to imipenem
# [2] = test system: Escherichia coli; assay: Compound was evaluated for antibacterial activity against Escherichia coli F14 compared to imipenem
# [3] = test system: Providencia rettgeri; assay: Compound was evaluated for antibacterial activity against Proteus rettgeri 10007 compared to imipenem
# [4] = test system: Enterobacter cloacae; assay: Compound was evaluated for antibacterial activity against Enterobacter cloacae 5744 compared to imipenem
# [5] = test system: Serratia; assay: Compound was evaluated for antibacterial activity against serratia 16001 compared to imipenem
# [6] = test system: Staphylococcus; assay: Compound was evaluated for antibacterial activity against Staphylococcus 25470 compared to imipenem
# [7] = test system: Escherichia coli; assay: Compound was evaluated for antibacterial activity against Escherichia coli Neumann compared to imipenem
# [8] = test system: Klebsiella; assay: Compound was evaluated for antibacterial activity against Klebsiella 57USA compared to imipenem
# [9] = test system: Proteus vulgaris; assay: Compound was evaluated for antibacterial activity against Proteus vulgaris N6 compared to imipenem
# [10] = test system: Proteus mirabilis; assay: Compound was evaluated for antibacterial activity against Proteus mirabilis 1235 compared to imipenem
# [11] = test system: Pseudomonas aeruginosa; assay: Compound was evaluated for antibacterial activity against Pseudomonas aeruginosa F 41 compared to imipenem
# [12] = test system: Acinetobacter; assay: (§1) Compound was evaluated for antibacterial activity against Acinetobacter 14601 compared to imipenem
# [13] = test system: Klebsiella; assay: Compound was evaluated for antibacterial activity against Klebsiella 63 compared to imipenem
# [14] = test system: Serratia; assay: Compound was evaluated for antibacterial activity against serratia 16002 compared to imipenem
# [15] = test system: Staphylococcus; assay: Compound was evaluated for antibacterial activity against Staphylococcus 25455 compared to imipenem
# [16] = test system: Staphylococcus aureus; assay: Compound was evaluated for antibacterial activity against Staphylococcus aureus 133 compared to imipenem
# [17] = test system: Staphylococcus aureus; assay: Compound was evaluated for antibacterial activity against Staphylococcus aurues 133 compared to imipenem
# [18] = test system: Staphylococcus; assay: Tested for antibacterial activity against Staphylococcus 25470 compared to imipenem
# [19] = test system: Acinetobacter sp.; assay: as §1
# [20] = test system: Enterobacter cloacae; assay: Compound was evaluated for antibacterial activity against Enterob. cl.5744 compared to imipenem
MIC [1] [µg/mL],MIC [2] [µg/mL],MIC [3] [µg/mL],MIC [4] [µg/mL],MIC [5] [µg/mL],MIC [6] [µg/mL],MIC [7] [µg/mL],MIC [8] [µg/mL],MIC [9] [µg/mL],MIC [10] [µg/mL],MIC [11] [µg/mL],MIC [12] [µg/mL],MIC [13] [µg/mL],MIC [14] [µg/mL],MIC [15] [µg/mL],MIC [16] [µg/mL],MIC [17] [µg/mL],MIC [18] [µg/mL],Compound,MIC [19] [µg/mL],MIC [20] [µg/mL]
1,8,2,4,8,8,0.5,4,< 0.25,< 0.25,128,4,2,16,< 0.25,< 0.25,,,C[C@@H](O)[C@H]1C(=O)N2C(C(=O)[O-])=C3c4ccccc4SC[C@@H]3[C@H]12.[Na+],,
2,8,4,8,32,32,1,4,< 0.25,1,128,16,4,32,1,,1,,C[C@@H](O)[C@H]1C(=O)N2C(C(=O)[O-])=C3c4ccsc4CC[C@@H]3[C@H]12.[Na+],,
16,16,16,32,64,,2,1,1,0.5,128,64,16,64,0.5,0.5,,128,C[C@@H](O)[C@H]1C(=O)N2C(C(=O)[O-])=C3c4ccccc4CCC[C@@H]3[C@H]12.[Na+],,

Compound,MIC [1] [µg/mL],MIC [2] [µg/mL],MIC [3] [µg/mL],MIC [4] [µg/mL],MIC [5] [µg/mL],MIC [6] [µg/mL],MIC [7] [µg/mL],MIC [8] [µg/mL],MIC [9] [µg/mL],MIC [10] [µg/mL],MIC [11] [µg/mL],MIC [12] [µg/mL],MIC [13] [µg/mL],MIC [14] [µg/mL],MIC [15] [µg/mL],MIC [16] [µg/mL],MIC [17] [µg/mL],MIC [18] [µg/mL],MIC [19] [µg/mL],MIC [20] [µg/mL]
C[C@@H](O)[C@H]1C(=O)N2C(C(=O)O)=C(SCCNC=N)C[C@H]12 [IMIPENEM ANHYDROUS],0.5,< 0.25,2,,< 0.25,32,< 0.25,< 0.25,0.5,4,2,,< 0.25,0.5,< 0.25,< 0.25,,,< 0.25,0.5
